Results on 14 compounds are retold here after patent publication US12139498B1, “Positive allosteric modulators of the muscarinic acetylcholine receptor M4” (Vanderbilt University, priority 2023, dated 2024).

One experiment deals with male Sprague-Dawley rats. In words: Amphetamine-induced hyperlocomotion in rats. The settings on record: 10 mg/kg p.o., amphetamine 0.25 mg/kg s.c., p<0.001.
The next experiment addresses T1, Human M4 (Homo sapiens, UniProt P08173).
T1 sequence (P08173 1-479): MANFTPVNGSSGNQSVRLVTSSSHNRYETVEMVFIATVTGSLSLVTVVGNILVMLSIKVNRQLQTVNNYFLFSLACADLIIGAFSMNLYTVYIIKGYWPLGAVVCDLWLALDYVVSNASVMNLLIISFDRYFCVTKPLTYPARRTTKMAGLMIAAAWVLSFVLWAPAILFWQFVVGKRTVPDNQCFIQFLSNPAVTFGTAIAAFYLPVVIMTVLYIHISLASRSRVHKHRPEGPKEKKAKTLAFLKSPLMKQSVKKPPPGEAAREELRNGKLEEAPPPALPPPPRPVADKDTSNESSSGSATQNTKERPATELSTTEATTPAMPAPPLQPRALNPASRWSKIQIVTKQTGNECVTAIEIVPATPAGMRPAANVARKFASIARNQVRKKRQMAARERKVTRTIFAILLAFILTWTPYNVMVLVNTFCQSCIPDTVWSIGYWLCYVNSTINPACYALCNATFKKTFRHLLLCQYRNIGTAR
In words: M4 cell-based functional assay (calcium mobilization). Also on record: expressed in transfected cells. To be noted: for Emax at 30 µM: % ACh maximum at 30 μM; for EC50: CHO-K1 hM4-Gqi5 cells, calcium flux, increase in EC20 acetylcholine response. Summed up: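 CHO-K1 cells stably co-expressing hM4 and chimeric Gqi5, loaded with Fluo-4-AM (1.15 μM final, 45 min, 37° C). Compound added ~140 s before EC20 then EC80 acetylcholine; calcium flux by kinetic fluorescence (ex 480/em 530 nm), expressed as fold over basal and normalized to maximal ACh response (1 mM).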

On to `Cc1nnc2sc(C(=O)NCc3ccc(S(=O)(=O)C(F)(F)F)cc3)c(N)c2c1C` [VU0467154, reference compound], for which the “percent reversal of amphetamine-induced hyperlocomotion” value in the experiment with male Sprague-Dawley rats is given as 52.7%.

`Cc1nc2c(s1)CN(c1nc3nccnc3cc1C)CC2` [Compound 57, 2-methyl-5-(7-methylpyrido[2,3-b]pyrazin-6-yl)-4,5,6,7-tetrahydrothiazolo[5,4-c]pyridine]: on Human M4, the maximal effect (Emax) at 30 µM was 90% and the EC50 amounted to 666 nM. For `Cc1cn2c(=O)n(C)nc2nc1N1CCc2nc(C3CCC3)sc2C1` [Compound 67, 7-(2-cyclobutyl-6,7-dihydrothiazolo[5,4-c]pyridin-5(4H)-yl)-2,6-dimethyl-[1,2,4]triazolo[4,3-a]pyrimidin-3(2H)-one], in that order: 71% and 4 nM. For `Cc1c(N2CCc3nc(C4(F)CC4)sc3C2)nc2nn(CC3CC3)c(=O)n2c1C` [Compound 78, 2-(cyclopropylmethyl)-7-(2-(1-fluorocyclopropyl)-6,7-dihydrothiazolo[5,4-c]pyridin-5(4H)-yl)-5,6-dimethyl-[1,2,4]triazolo[4,3-a]pyrimidin-3(2H)-one], in that order: 109% and 18 nM. The like results for `Cc1nc(Cl)c(C)c(N2CCc3nc(Br)sc3C2)n1` [Compound 11, 2-bromo-5-(6-chloro-2,5-dimethylpyrimidin-4-yl)-4,5,6,7-tetrahydrothiazolo[5,4-c]pyridine] were, in that order, 85% and 103 nM. On to `Cc1cc(=O)n2nc(N3CCc4nc(Br)sc4C3)c(C)cc2n1` [Compound 35, 7-(2-bromo-6,7-dihydrothiazolo[5,4-c]pyridin-5(4H)-yl)-2,8-dimethyl-4H-pyrimido[1,2-b]pyridazin-4-one], for which, on Human M4, the maximal effect (Emax) at 30 µM is 89% and the half-maximal effective concentration (EC50) came to 291 nM. For `Cc1cc2nccnc2nc1N1CCc2nc(C3CC3(C)C)sc2C1` (stereo not drawn) [Compound 63, 2-(2,2-dimethylcyclopropyl)-5-(7-methylpyrido[2,3-b]pyrazin-6-yl)-4,5,6,7-tetrahydrothiazolo[5,4-c]pyridine], in that order: 63% and 738 nM. For `Cc1cc2nccnc2nc1N1CCc2ncsc2C1` [Compound 53, 5-(7-methylpyrido[2,3-b]pyrazin-6-yl)-4,5,6,7-tetrahydrothiazolo[5,4-c]pyridine], in that order: 82% and 2790 nM. For `Cc1c(N2CCc3nc(C4(F)CC4)sc3C2)nc2n[nH]c(=O)n2c1C` [Compound 69, 7-(2-(1-fluorocyclopropyl)-6,7-dihydrothiazolo[5,4-c]pyridin-5(4H)-yl)-5,6-dimethyl-[1,2,4]triazolo[4,3-a]pyrimidin-3(2H)-one], on Human M4, the maximal response (Emax) at 30 µM is 88% and the EC50 turned out to be 18 nM. For `Cc1nc2c(s1)CN(c1ncc(C#N)cc1C)CC2` [Compound 15, 5-methyl-6-(2-methyl-6,7-dihydrothiazolo[5,4-c]pyridin-5(4H)-yl)nicotinonitrile], on Human M4, the maximum response (Emax) at 30 µM was 87% and the EC50 was 371 nM. For `Cc1nc2c(C)c(C)c(N3CCc4nc(Br)sc4C3)nn2c(=O)c1F` [Compound 37, 7-(2-bromo-6,7-dihydrothiazolo[5,4-c]pyridin-5(4H)-yl)-3-fluoro-2,8,9-trimethyl-4H-pyrimido[1,2-b]pyridazin-4-one], in that order: 81% and 47 nM. Regarding `Cc1cc2nccnc2nc1N1CCc2nc(Cl)sc2C1` [Compound 61, 2-chloro-5-(7-methylpyrido[2,3-b]pyrazin-6-yl)-4,5,6,7-tetrahydrothiazolo[5,4-c]pyridine], at Human M4, the Emax at 30 µM was determined as 68% and the EC50 was determined as 414 nM.

Regarding `COc1ccc2ncnc(N3CCc4nc(Br)sc4C3)c2c1` [Compound 31, 2-bromo-5-(6-methoxyquinazolin-4-yl)-4,5,6,7-tetrahydrothiazolo[5,4-c]pyridine], on Human M4, the Emax at 30 µM worked out at 68% and the concentration giving a half-maximal response (EC50) was determined as 566 nM.

In the case of `COC1CN(C(=O)c2cc(=O)n3nc(N4CCc5nc(Br)sc5C4)c(C)cc3n2)C1` [Compound 44, 7-(2-bromo-6,7-dihydrothiazolo[5,4-c]pyridin-5(4H)-yl)-2-(3-methoxyazetidine-1-carbonyl)-8-methyl-4H-pyrimido[1,2-b]pyridazin-4-one], on Human M4, the Emax at 30 µM came to 93% and the EC50 turned out to be 2390 nM.
